EP2411506B1, “TUMOR SUPPRESSION USING HUMAN PLACENTA-DERIVED INTERMEDIATE NATURAL KILLER CELLS AND IMMUNOMODULATORY COMPOUNDS” (Celularity, Inc., priority 2009, dated 2010)

How the values were obtained:
[1] = tested on: day 21 cultivated placental NK cells; test: ELISA of perforin and granzyme B secretion from treated NK cells; assay type: cell-based, human; details: treated day 21 cultivated placental NK cells compared to controls
Protocol: In a separate experiment, secretion of perforin and granzyme B from pomalidomide- or lenalidomide-treated day 21 cultivated placental NK cells was evaluated by ELISA.

cultured PINK cells = test: qRT-PCR gene expression analysis of lenalidomide- and pomalidomide-treated cultured PINK cells; assay type: cell-based, human; details: for expression of GM-CSF, increase: treated PINK cells vs untreated
Text: RNA isolation and purification.
Quantitative real-time (qRT-PCR) analysis.

placental NK cells = test: Luminex (Five-Plex Antibody Kit) of GM-CSF and TNF-α secretion from treated NK cells; details: treated cultured NK cells compared to controls
Protocol: Secretion of GM-CSF and TNF-α was evaluated by Luminex utilizing a Five-Plex Antibody Kit.

NK cells = test: Flow cytometry of GZMB-positive NK cells after pomalidomide treatment; assay type: cell-based, human; details: increase vs untreated
[2] = treated vs untreated cultured PINK cells (Veh = 1)
[3] = treated vs untreated cultured PINK cells (Veh = 1.01)

`Nc1cccc2c1CN(C1CCC(=O)NC1=O)C2=O` (centres unmarked) [lenalidomide, 3-(4'aminoisoindoline-1'-one)-1-piperidine-2,6-dione] was tested, and the “increase in granzyme B secretion” value [1] was 113%, the “increase in perforin secretion” value [1] was 86% and the “expression of GM-CSF, increase” value (cultured PINK cells; qRT-PCR) was 232% ± 1.6%. The “Fold change of gene expression: BAX” value (cultured PINK cells; [2]) was 1.39, the “Fold change of gene expression: CCL5” value (cultured PINK cells; [2]) was 1.24 and the “Fold change of gene expression: CCR5” value (cultured PINK cells; [2]) was 0.9. The “Fold change of gene expression: CD8A” value (cultured PINK cells; [2]) was 1.3, the “Fold change of gene expression: CD68” value (cultured PINK cells; [2]) was 4.04 and the “Fold change of gene expression: CSF2” value (cultured PINK cells; [2]) was 2.32. The “Fold change of gene expression: FAS” value (cultured PINK cells; [2]) was 1.11, the “Fold change of gene expression: GUSB” value (cultured PINK cells; [2]) was 1.13 and the “Fold change of gene expression: IL2RA” value (cultured PINK cells; [2]) was 1.26. For the same compound, the “Fold change of gene expression: TNFRSF18” value (cultured PINK cells; [2]) was 0.7, the “increase in GM-CSF secretion” value (placental NK cells) was 166% and the “increase in TNF-α secretion” value (placental NK cells) was 76%.
In the case of `Nc1cccc2c1C(=O)N(C1CCC(=O)NC1=O)C2=O` (racemic) [pomalidomide, 4-amino-2-[(3RS)-2,6-dioxopiperidin-3-yl)-1H-isoindole-1,3(2H)-dione], the “increased percentage of GZMB-positive NK cells” value (NK cells) is reported as 25%, the “increase in granzyme B secretion” value [1] is reported as 69% and the “increase in perforin secretion” value [1] is reported as 121%. The “increased granzyme B (GZMB) gene expression” value (cultured PINK cells; increase vs untreated, qRT-PCR) was 60% ± 1.7%, the “expression of GM-CSF, increase” value (cultured PINK cells; qRT-PCR) was 396% ± 0.3% and the “Fold change of gene expression: ACTB” value (cultured PINK cells; [2]) was 0.77. For the same compound, the “Fold change of gene expression: BAX” value (cultured PINK cells; [2]) was 2.23, the “Fold change of gene expression: CCL2” value (cultured PINK cells; [2]) was 5.46 and the “Fold change of gene expression: CCL3” value (cultured PINK cells; [2]) was 2.2. For the same compound, the “Fold change of gene expression: CCL5” value (cultured PINK cells; [2]) was 1.78, the “Fold change of gene expression: CCR5” value (cultured PINK cells; [2]) was 0.68 and the “Fold change of gene expression: CD8A” value (cultured PINK cells; [2]) was 2.39. The “Fold change of gene expression: CD68” value (cultured PINK cells; [2]) was 8.74, the “Fold change of gene expression: CD80” value (cultured PINK cells; [2]) was 1.59 and the “Fold change of gene expression: CSF1” value (cultured PINK cells; [2]) was 1.41. The “Fold change of gene expression: CSF2” value (cultured PINK cells; [2]) was 3.96, the “Fold change of gene expression: ECE1” value (cultured PINK cells; [2]) was 1.56 and the “Fold change of gene expression: FAS” value (cultured PINK cells; [2]) was 1.34. The “Fold change of gene expression: GUSB” value (cultured PINK cells; [2]) was 1.76, the “Fold change of gene expression: GZMB” value (cultured PINK cells; [2]) was 1.59 and the “Fold change of gene expression: IL2RA” value (cultured PINK cells; [2]) was 1.58. For the same compound, the “Fold change of gene expression: IL8” value (cultured PINK cells; [2]) was 1.62, the “Fold change of gene expression: LTA” value (cultured PINK cells; [2]) was 2.88 and the “Fold change of gene expression: PRF1” value (cultured PINK cells; [2]) was 1.17. The “Fold change of gene expression: PTGS2” value (cultured PINK cells; [2]) was 1.68, the “Fold change of gene expression: SKI” value (cultured PINK cells; [2]) was 1.96 and the “Fold change of gene expression: GNLY” value (cultured PINK cells; [3]) was 1.96. For the same compound, the “Fold change of gene expression: IL1A” value (cultured PINK cells; [3]) was 2.61, the “Fold change of gene expression: TBX21” value (cultured PINK cells; [3]) was 2.05 and the “Fold change of gene expression: IL10” value (cultured PINK cells; treated vs untreated cultured PINK cells (Veh = 1.02)) was 1.52. The “increase in GM-CSF secretion” value (placental NK cells) was 357% and the “increase in TNF-α secretion” value (placental NK cells) was 147%.
